The values that follow come from patent publication US9783547B2, “Water soluble 4-azapodophyllotoxin analogs” (CENTRE NATIONAL DE LA RECHERCHE SCIENTIFIQUE (CNRS), priority 2014, dated 2017).

The test system of one data set is tubulin. Put plainly: Tubulin polymerization inhibition assay (DAPI fluorescence). It counts as biochemical. Conditions: for pIC50: tubulin 1 mg/ml, DAPI, read-out: IPT (inhibition of tubulin polymerization) IC50; for Inhibition of tubulin polymerization at 30 μM: IC50 ND. The text has this:
Fluorescence was then read at the excitation wavelength of 360 nm and emission of 450 nm.

The test system of data set [1] is EAhy 926 endothelial cell line. The data set is described as follows: Endothelial cell morphology evaluation (rounding up). Conditions: Homo sapiens, EA.hy 926; 2 h incubation; rounding up of more than 15% of cells; read-out: Cmarr EA.hy 926: lowest concentration at which cell rounding up was observed. Format: cell-based. The text has this:
To assess the effects of the compounds on the morphology of endothelial cells, the EAhy 926 endothelial cell line was used, which is derived from the fusion of human umbilical vein endothelial cells (HUVEC) with the permanent human cell line A549 (Edgell et al, Proc. Natl. Acad. Sci. U.S.A., 1983, vol 80, issue 12, 3734-3737). The EAhy 926 cell line is considered as a good representative of native HUVEC because it expresses most of the biochemical markers of parental HUVEC (Bouis et al., Angiogenesis., 2001, 4, 91-102). EAhy 926 cells were grown in DMEM containing 2 mM L-glutamine, 10% foetal bovine serum, 100 U/mL penicillin and 100 μg/mL streptomycin in a humidified atmosphere (37° C., 5% CO2). Exponentially growing EAhy 926 cells were plated onto 96 well plates at 5000 cells/100 μL/well. Twenty-four hours after plating, the medium was aspirated, and 100 μL of medium containing the test compound was added to the well containing the cells (in triplicate) and incubated for 2 h (37° C., 5% CO2). The highest concentration used was 100 μM followed by serial two-fold dilutions down to low nanomolar concentrations, if needed for the most morphologically active compounds. After the 2 h-incubation period, digital photographs were taken of representative centre areas of each well at a magnification of 100× and 200×. The results are presented as the minimum concentration that could elicit the rounding up of more than 15% of cells in a field in order to exclude normal mitotic cells which is less that 15% in control 1% DMSO treated cells. Triplicate concentrations on the same plate were routinely carried out. CA4 was included in the experiments as a positive internal standard.
Compounds of the invention were first tested on EAhy 926 endothelial cells, which are transformed HUVEC (human umbilical vein endothelial cells). These cells undergo a rounding up upon a short 2 hour exposure to vascular disrupting agents, e.g. combretastatin A4.

For a further data set, the system named is B16 melanoma cells. Put plainly: Cytotoxicity assay for murine cancer cells (MTT). It counts as cell-based. Conditions: Mus musculus, 48 h exposure. On the procedure:
Murine B16 melanoma cells, Lewis lung carcinoma cells and colon 26 carcinoma cells were grown in DMEM medium containing 2 mM L-glutamine, 10% foetal bovine serum, 100 U/mL penicillin and 100 μg/mL streptomycin (37° C., 5% CO2). […] Exponentially growing cells were plated onto 96-well plates at 5000 cells per well in 100 μL of culture medium. 24 h after plating, 100 μl of medium containing the tested compound at final concentrations ranging from 0.01 to 100 μM were added to the wells (in triplicate) containing the cells, and incubated for 48 h at 37° C. and 5% CO2. After the 48 h exposure period to the test compounds, cell viability was assayed using the MTT (methylthiazoletetrazolium) test (Scudiero et al., Cancer Res. 1988, 48, 4827-4833) and absorbance was read at 562 nm in a microplate reader (BioKinetics Reader, EL340). Appropriate controls with DMEM only and MTT were run to subtract background absorbance.

SMILES strings stand for the structures. pIC50: −log10 of the molar value. Counter-ions that a name gives are not always drawn.

The molecule `O=C1CCCc2nc3cc4c(cc3c(Nc3ccc5c(c3)OCO5)c21)OCO4` (as salt: hydrochloride) [SGR 355•HCl, 6,7-(Methylenedioxy)-9-(3,4-methylenedioxyphenyl-amino)-3,4-dihydroacridin-1(2H)-one, hydrochloride] had a melting point of 260 °C.

With `COc1cccc(Nc2c3c(nc4cc5c(cc24)OCO5)CCCC3=O)c1` (as salt: hydrochloride) [SGR 356•HCl, 6,7-(Methylenedioxy)-9-(3-methoxyphenylamino)-3,4-dihydroacridin-1(2H)-one, hydrochloride], the melting point was found to be 258 °C.

As to `COc1cc(Nc2c3c(nc4cc5c(cc24)OCO5)CCC3=O)cc(OC)c1OC` (as salt: hydrochloride) [SGR 358•HCl, 6,7-(Methylenedioxy)-9-(3,4,5-trimethoxyphenylamino)-2,3-dihydro-1H-cyclopenta[b]quinolin-1-one, hydrochloride], the melting point was 267 °C.

`COc1ccc(Nc2c3c(nc4cc5c(cc24)OCO5)CCC3=O)cc1OC` (as salt: hydrochloride) [SGR 359•HCl, 6,7-(Methylenedioxy)-9-(3,4-dimethoxyphenylamino)-2,3-dihydro-1H-cyclopenta[b]quinolin-1-one, hydrochloride] had a melting point of 256 °C.

Take `COc1cc(Nc2c3c(nc4cc5c(cc24)OCCO5)CCCC3=O)cc(OC)c1OC` (as salt: hydrochloride) [SGR 360•HCl, 6,7-(Ethylenedioxy)-9-(3,4,5-trimethoxyphenylamino)-3,4-dihydroacridin-1(2H)-one, hydrochloride]: the melting point is 266 °C.

`COc1cc(Nc2c3c(nc4cc5c(cc24)OCCO5)CCCC3=O)cc(OC)c1` (as salt: hydrochloride) [SGR 361•HCl, 6,7-(Ethylenedioxy)-9-(3,5-dimethoxyphenylamino)-3,4-dihydroacridin-1(2H)-one, hydrochloride] registered a melting point of 254 to 255 °C.

In turn, `COc1cc(Nc2c3c(nc4cc5c(cc24)OCO5)CCCC3=O)cc(OC)c1` (as salt: hydrochloride) [SGR 363•HCl, 6,7-(Methylenedioxy)-9-(3,5-dimethoxyphenylamino)-3,4-dihydroacridin-1(2H)-one, hydrochloride] gave a melting point of 256 °C.

As to `COc1cc(Nc2c3c(nc4cc(C)c(C)cc24)CCCC3=O)cc(OC)c1OC` (as salt: hydrochloride) [SGR 364•HCl, 6,7-(Dimethyl)-9-(3,4,5-trimethoxyphenylamino)-3,4-dihydroacridin-1(2H)-one, hydrochloride], the melting point was 216 °C.

In the case of `COc1cc(NC2=C3C(=O)OCC3N(C)c3cc4c(cc32)OCO4)cc(OC)c1OC` (stereo not drawn) [SGR 230, reference compound], the figures for the pIC50 in the data set on tubulin and in the data set on B16 melanoma cells were 5.98 and 4.42, respectively. Further, the minimal effective concentration in data set [1] stood at 0.12 µM.

Regarding `COc1cc(Nc2c3c(nc4cc5c(cc24)OCO5)COC3=O)cc(OC)c1OC` [SGR 231, reference compound], the negative logarithm of the IC50 (pIC50) is 6.38 in the data set with tubulin and 6.40 with B16 melanoma cells. Besides, in data set [1], the minimal effective concentration is 1.95 µM.

With `O=C1CCCc2nc3cc4c(cc3cc21)OCO4` [SGR 304], the “Inhibition of tubulin polymerization at 30 μM” value (from here on “Inhibition”) in the data set on tubulin is recorded as “ND (33% à 30 μM)”. The minimal effective concentration in data set [1] was greater than 100 µM. The molecule further gave a pIC50 in the data set with B16 melanoma cells of less than 4.00.

With `O=C1CCCc2c1cc1cc3c(cc1[n+]2[O-])OCO3` [SGR 305], in the data set with tubulin, the “Inhibition” value is reported as “ND (22% à 30 μM)”. In data set [1], the minimal effective concentration is greater than 100 µM. The negative logarithm of the IC50 (pIC50) in the data set on B16 melanoma cells was less than 4.00.

Take `O=C1CCCc2nc3cc4c(cc3c(Cl)c21)OCO4` [SGR 306]: the “Inhibition” value in the data set on tubulin was “ND (3% à 30 μM)”. Besides, the minimal effective concentration in data set [1] turned out to be 12.5 µM. In the data set on B16 melanoma cells, this molecule gave a negative-log IC50 (pIC50) of less than 4.00.

As to `COc1cc(Nc2c3c(nc4cc5c(cc24)OCO5)CCCC3O)cc(OC)c1OC` (stereo not drawn) [SGR 308], the “Inhibition” value in the data set on tubulin is given as “ND (31% à 30 μM)”. Further, the minimal effective concentration in data set [1] came to 25 µM. Besides, the pIC50 in the data set with B16 melanoma cells is 4.53.

For the molecule `COc1cc(Nc2c3c(nc4cc5c(cc24)OCO5)CCC=C3)cc(OC)c1OC` [SGR 309], the negative logarithm of the IC50 (pIC50) in the data set with tubulin was 4.74; in the data set with B16 melanoma cells it was 4.96. Also, the minimal effective concentration in data set [1] was 3.13 µM.

For the molecule `O=C1CCCc2nc3cc4c(cc3c(Nc3ccc5c(c3)OCO5)c21)OCO4` [SGR 355•HCl, 6,7-(Methylenedioxy)-9-(3,4-methylenedioxyphenyl-amino)-3,4-dihydroacridin-1(2H)-one, hydrochloride], in data set [1], the minimal effective concentration was 100 µM. In the data set with B16 melanoma cells, this molecule gave a pIC50 of 4.76.

Regarding `COc1cccc(Nc2c3c(nc4cc5c(cc24)OCO5)CCCC3=O)c1` [SGR 356•HCl, 6,7-(Methylenedioxy)-9-(3-methoxyphenylamino)-3,4-dihydroacridin-1(2H)-one, hydrochloride], the minimal effective concentration in data set [1] is 50 µM. The molecule further gave a pIC50 in the data set on B16 melanoma cells of less than 4.00.

As to `COc1cc(CNc2c3c(nc4cc5c(cc24)OCO5)CCCC3=O)cc(OC)c1OC.Cl` [SGR 357•HCl], in the data set on tubulin, the “Inhibition” value is listed as “ND (18% à 30 μM)”. Also, the minimal effective concentration in data set [1] worked out at 25 µM. For the same molecule, the negative-log IC50 (pIC50) with B16 melanoma cells is 5.05.

Regarding `COc1cc(Nc2c3c(nc4cc5c(cc24)OCO5)CCC3=O)cc(OC)c1OC` [SGR 358•HCl, 6,7-(Methylenedioxy)-9-(3,4,5-trimethoxyphenylamino)-2,3-dihydro-1H-cyclopenta[b]quinolin-1-one, hydrochloride], the minimal effective concentration in data set [1] was 0.25 µM. The negative-log IC50 (pIC50) with B16 melanoma cells was 6.00.

Regarding `COc1ccc(Nc2c3c(nc4cc5c(cc24)OCO5)CCC3=O)cc1OC` [SGR 359•HCl, 6,7-(Methylenedioxy)-9-(3,4-dimethoxyphenylamino)-2,3-dihydro-1H-cyclopenta[b]quinolin-1-one, hydrochloride], the minimal effective concentration in data set [1] stood at 25 µM. The molecule further gave a negative logarithm of the IC50 (pIC50) in the data set on B16 melanoma cells of 4.76.

For `COc1cc(Nc2c3c(nc4cc5c(cc24)OCCO5)CCCC3=O)cc(OC)c1OC` [SGR 360•HCl, 6,7-(Ethylenedioxy)-9-(3,4,5-trimethoxyphenylamino)-3,4-dihydroacridin-1(2H)-one, hydrochloride], the minimal effective concentration in data set [1] stood at 0.06 µM. This molecule also had a pIC50 in the data set on B16 melanoma cells of 5.09.

Take `COc1cc(Nc2c3c(nc4cc5c(cc24)OCO5)CCCC3=O)cc(OC)c1` [SGR 363•HCl, 6,7-(Methylenedioxy)-9-(3,5-dimethoxyphenylamino)-3,4-dihydroacridin-1(2H)-one, hydrochloride]: the minimal effective concentration in data set [1] is 0.06 µM. The same molecule showed a negative-log IC50 (pIC50) in the data set with B16 melanoma cells of 5.85.

As for `COc1cc(Nc2c3c(nc4cc(C)c(C)cc24)CCCC3=O)cc(OC)c1OC` [SGR 364•HCl, 6,7-(Dimethyl)-9-(3,4,5-trimethoxyphenylamino)-3,4-dihydroacridin-1(2H)-one, hydrochloride], the minimal effective concentration in data set [1] is 6.25 µM. In the data set with B16 melanoma cells, the negative-log IC50 (pIC50) was 4.90.

In the case of `COc1ccc(/C=C\c2cc(OC)c(OC)c(OC)c2)cc1O` [combretastatin A4, reference compound], the negative-log IC50 (pIC50) in the data set on tubulin is […].

`COc1cc([C@@H]2c3cc4c(cc3[C@H](O)[C@H]3COC(=O)[C@H]23)OCO4)cc(OC)c1OC` [podophyllotoxin]: the pIC50 in the data set with tubulin was […].
